Legend:
[1] = Apparent volume of distribution in C57BL/6J mouse at 1 mg/kg, iv; format: ADME, organism-based; conditions: in vivo, read-out: Vz
[2] = Metabolic stability in rat liver microsomes assessed as half-life; format: ADME, Microsome
[3] = Tmax in C57BL/6J mouse at 10 mg/kg, po; format: ADME, organism-based; conditions: in vivo
[4] = Metabolic stability in mouse liver microsomes assessed as half-life; format: ADME, Microsome
[5] = Clearance in dog at 1 mg/kg, iv; format: ADME, organism-based, Canis lupus familiaris; conditions: in vivo
[6] = Metabolic stability in dog liver microsomes assessed as half-life; format: ADME, Canis lupus familiaris, Microsome
[7] = Protein binding in dog plasma assessed as unbound fraction; format: ADME, cell-free, Canis lupus familiaris
[8] = Clearance in C57BL/6J mouse at 1 mg/kg, iv; format: ADME, organism-based; conditions: in vivo
[9] = AUC (0 to 24 hrs) in rat at 10 mg/kg, po; format: ADME, organism-based; conditions: in vivo
[10] = target: MAP kinase-interacting serine/threonine-protein kinase 1 (Homo sapiens) (UniProt Q9BUB5); experiment: Inhibition of wildtype MNK1 (unknown origin) at 1 uM relative to control
[11] = tested on: Rattus norvegicus; experiment: Analgesic activity in sciatic nerved CCI-induced neuropathic pain rat model assessed as reduction in mechanical hyperalgesia at 10 mg/kg, po administered from day 14 post CCI-surgery and measured after 3.5 to 5.5 hrs by Von Frey test; format: functional, organism-based; conditions: time 3.5-5.5 hrs
[12] = Tmax in rat at 10 mg/kg, po; format: ADME, organism-based; conditions: in vivo
[13] = target: T1, Cyclin-G-associated kinase (Homo sapiens) (UniProt O14976); experiment: Inhibition of wildtype GAK (unknown origin) at 1 uM relative to control
T1 sequence (whole entry): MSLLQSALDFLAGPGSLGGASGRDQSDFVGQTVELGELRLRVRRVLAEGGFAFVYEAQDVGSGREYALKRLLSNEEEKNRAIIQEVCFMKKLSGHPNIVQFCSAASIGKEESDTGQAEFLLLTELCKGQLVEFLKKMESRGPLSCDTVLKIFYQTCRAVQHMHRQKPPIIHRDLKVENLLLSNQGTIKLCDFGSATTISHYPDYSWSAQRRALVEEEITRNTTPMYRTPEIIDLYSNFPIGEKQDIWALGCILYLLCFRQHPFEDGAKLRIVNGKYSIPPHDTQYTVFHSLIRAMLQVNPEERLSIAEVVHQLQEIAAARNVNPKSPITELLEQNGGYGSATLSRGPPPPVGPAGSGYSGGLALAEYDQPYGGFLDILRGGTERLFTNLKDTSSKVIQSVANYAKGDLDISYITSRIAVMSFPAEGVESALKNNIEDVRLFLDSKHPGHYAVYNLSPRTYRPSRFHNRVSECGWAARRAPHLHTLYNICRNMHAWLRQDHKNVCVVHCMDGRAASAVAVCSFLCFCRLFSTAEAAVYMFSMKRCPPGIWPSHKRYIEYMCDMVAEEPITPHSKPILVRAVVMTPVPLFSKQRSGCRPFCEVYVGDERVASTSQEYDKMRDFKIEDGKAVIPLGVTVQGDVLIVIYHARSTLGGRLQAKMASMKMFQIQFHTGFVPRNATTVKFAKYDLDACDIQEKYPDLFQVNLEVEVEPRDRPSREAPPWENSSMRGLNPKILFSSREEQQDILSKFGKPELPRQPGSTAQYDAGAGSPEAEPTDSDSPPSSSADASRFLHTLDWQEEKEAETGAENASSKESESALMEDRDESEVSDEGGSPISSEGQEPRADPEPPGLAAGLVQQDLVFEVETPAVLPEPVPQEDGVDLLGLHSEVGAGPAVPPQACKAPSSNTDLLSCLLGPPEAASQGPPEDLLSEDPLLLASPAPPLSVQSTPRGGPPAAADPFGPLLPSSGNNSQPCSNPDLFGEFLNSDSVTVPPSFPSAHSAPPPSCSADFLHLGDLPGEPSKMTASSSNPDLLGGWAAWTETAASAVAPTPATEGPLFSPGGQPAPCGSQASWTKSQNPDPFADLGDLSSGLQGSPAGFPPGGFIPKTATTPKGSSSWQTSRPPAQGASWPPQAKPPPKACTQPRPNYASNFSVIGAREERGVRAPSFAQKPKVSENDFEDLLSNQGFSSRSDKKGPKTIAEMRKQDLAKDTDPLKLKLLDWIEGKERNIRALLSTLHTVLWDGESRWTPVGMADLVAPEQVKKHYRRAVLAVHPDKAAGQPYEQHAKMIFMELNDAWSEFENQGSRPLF

[14] = Apparent volume of distribution in dog at 1 mg/kg, iv; format: ADME, organism-based, Canis lupus familiaris; conditions: in vivo, read-out: Vz
[15] = Protein binding in rat plasma assessed as unbound fraction; format: ADME, cell-free
[16] = Clearance in rat at 1 mg/kg, iv; format: ADME, organism-based; conditions: in vivo
[17] = target: MAP kinase-interacting serine/threonine-protein kinase 2 (Homo sapiens) (UniProt Q9HBH9); experiment: Inhibition of wildtype MNK2 (unknown origin) at 1 uM relative to control
[18] = Protein binding in human plasma assessed as unbound fraction; format: ADME, cell-free
[19] = target: T2, CYP3A4 (Homo sapiens, UniProt P08684); experiment: Inhibition of CYP3A4 (unknown origin) using midazolam as substrate at 10 uM relative to control; format: ADME; conditions: probe midazolam
[20] = Protein binding in mouse plasma assessed as unbound fraction; format: ADME, cell-free
[21] = target: CYP2D6 (Homo sapiens, UniProt P10635); experiment: Inhibition of CYP2D6 (unknown origin) at 10 uM relative to control; format: ADME
[22] = AUC (0 to 24 hrs) in C57BL/6J mouse at 10 mg/kg, po; format: ADME, organism-based; conditions: in vivo
[23] = Tmax in dog at 5 mg/kg, po; format: ADME, organism-based, Canis lupus familiaris; conditions: in vivo
[24] = target: CYP2C9 (Homo sapiens, UniProt P11712); experiment: Inhibition of CYP2C9 (unknown origin) at 10 uM relative to control; format: ADME
[25] = Oral bioavailability in rat at 10 mg/kg; format: ADME, organism-based; conditions: in vivo
[26] = target: BMP-2-inducible protein kinase (Homo sapiens) (UniProt Q9NSY1); experiment: Inhibition of wildtype BIKE (unknown origin) at 1 uM relative to control
[27] = Oral bioavailability in dog at 5 mg/kg; format: ADME, organism-based, Canis lupus familiaris; conditions: in vivo
[28] = Metabolic stability in human liver microsomes assessed as half-life; format: ADME, Microsome
[29] = Half-life in dog at 1 mg/kg, iv; format: ADME, organism-based, Canis lupus familiaris; conditions: in vivo
[30] = target: Voltage-gated inwardly rectifying potassium channel KCNH2 (Homo sapiens, UniProt Q12809); experiment: Inhibition of human ERG by patch clamp assay; format: toxicity
[31] = Cytotoxicity against human HepG2 cells; format: toxicity, cell-based
[32] = Oral bioavailability in C57BL/6J mouse at 10 mg/kg; format: ADME, organism-based; conditions: in vivo
[33] = Metabolic stability in hepatocytes (unknown origin) assessed as half-life; format: ADME, cell-based, Hepatocyte
[34] = Half-life in rat at 1 mg/kg, iv; format: ADME, organism-based; conditions: in vivo
[35] = Apparent volume of distribution in rat at 1 mg/kg, iv; format: ADME, organism-based; conditions: in vivo, read-out: Vz
[36] = target: T2, CYP3A4; experiment: Inhibition of CYP3A4 (unknown origin) using testosterone as substrate at 10 uM relative to control; format: ADME; conditions: probe testosterone
[37] = AUC (0 to 24 hrs) in dog at 5 mg/kg, po; format: ADME, organism-based, Canis lupus familiaris; conditions: in vivo
[38] = target: T3, cGMP-dependent protein kinase 2 (Homo sapiens) (UniProt Q13237); experiment: Inhibition of wildtype CGK2 (unknown origin) at 1 uM relative to control
T3 sequence (whole entry): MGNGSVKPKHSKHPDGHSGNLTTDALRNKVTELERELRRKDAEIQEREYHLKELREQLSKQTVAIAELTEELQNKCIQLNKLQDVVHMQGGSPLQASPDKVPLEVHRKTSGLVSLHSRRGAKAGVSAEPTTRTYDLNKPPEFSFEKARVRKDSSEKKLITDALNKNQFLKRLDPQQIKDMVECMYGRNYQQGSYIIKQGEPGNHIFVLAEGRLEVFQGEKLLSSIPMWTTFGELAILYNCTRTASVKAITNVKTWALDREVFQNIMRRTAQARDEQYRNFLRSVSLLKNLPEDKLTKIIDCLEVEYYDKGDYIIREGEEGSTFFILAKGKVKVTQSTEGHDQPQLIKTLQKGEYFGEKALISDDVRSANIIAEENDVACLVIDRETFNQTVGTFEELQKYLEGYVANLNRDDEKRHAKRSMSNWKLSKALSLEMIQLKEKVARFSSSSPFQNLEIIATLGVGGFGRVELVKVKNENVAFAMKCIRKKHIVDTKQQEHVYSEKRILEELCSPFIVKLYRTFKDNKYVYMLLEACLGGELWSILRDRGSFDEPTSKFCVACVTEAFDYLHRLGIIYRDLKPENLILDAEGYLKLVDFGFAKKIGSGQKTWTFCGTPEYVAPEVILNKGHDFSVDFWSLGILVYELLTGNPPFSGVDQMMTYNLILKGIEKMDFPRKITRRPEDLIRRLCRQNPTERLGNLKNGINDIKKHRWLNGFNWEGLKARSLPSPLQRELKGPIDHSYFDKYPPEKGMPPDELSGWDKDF

[39] = target: Citron Rho-interacting kinase (Homo sapiens) (UniProt O14578); experiment: Inhibition of wildtype CRIK (unknown origin) at 1 uM relative to control
[40] = Half-life in C57BL/6J mouse at 1 mg/kg, iv; format: ADME, organism-based; conditions: in vivo
[41] = Half-life in C57BL/6J mouse at 10 mg/kg, po; format: ADME, organism-based; conditions: in vivo
[42] = Cmax in C57BL/6J mouse at 10 mg/kg, po; format: ADME, organism-based; conditions: in vivo
[43] = AUC (0 to 24 hrs) in C57BL/6J mouse at 1 mg/kg, iv; format: ADME, organism-based; conditions: in vivo
[44] = target: AP2-associated protein kinase 1 (Homo sapiens, UniProt Q2M2I8); experiment: Inhibition of AAK1 (unknown origin)
Sequence of AP2-associated protein kinase 1 (Q2M2I8 whole entry): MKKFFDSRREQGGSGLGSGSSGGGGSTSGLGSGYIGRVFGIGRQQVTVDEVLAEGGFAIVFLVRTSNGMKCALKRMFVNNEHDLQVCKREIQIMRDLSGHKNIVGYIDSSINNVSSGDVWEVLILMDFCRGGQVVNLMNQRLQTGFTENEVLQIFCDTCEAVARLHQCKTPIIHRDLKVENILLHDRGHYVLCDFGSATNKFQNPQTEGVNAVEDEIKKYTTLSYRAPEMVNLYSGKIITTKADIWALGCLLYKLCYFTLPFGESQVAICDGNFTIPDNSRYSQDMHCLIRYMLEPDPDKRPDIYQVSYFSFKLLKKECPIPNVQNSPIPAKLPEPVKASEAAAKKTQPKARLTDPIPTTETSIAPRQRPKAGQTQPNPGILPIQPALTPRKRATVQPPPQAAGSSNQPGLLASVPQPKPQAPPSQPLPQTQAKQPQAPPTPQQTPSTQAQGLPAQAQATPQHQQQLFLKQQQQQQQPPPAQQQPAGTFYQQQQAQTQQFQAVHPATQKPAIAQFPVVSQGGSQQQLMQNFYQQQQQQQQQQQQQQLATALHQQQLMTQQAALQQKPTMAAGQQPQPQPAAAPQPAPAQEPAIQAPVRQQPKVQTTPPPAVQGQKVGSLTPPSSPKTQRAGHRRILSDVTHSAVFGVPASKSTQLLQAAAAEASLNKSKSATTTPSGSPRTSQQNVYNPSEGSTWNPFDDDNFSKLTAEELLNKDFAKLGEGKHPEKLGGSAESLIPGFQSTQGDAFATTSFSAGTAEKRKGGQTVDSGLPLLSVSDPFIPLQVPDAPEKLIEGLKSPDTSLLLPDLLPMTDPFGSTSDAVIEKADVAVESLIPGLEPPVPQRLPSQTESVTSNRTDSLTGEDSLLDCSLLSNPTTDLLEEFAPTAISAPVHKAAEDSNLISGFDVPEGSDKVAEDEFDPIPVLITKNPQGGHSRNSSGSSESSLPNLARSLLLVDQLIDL

T2 sequence (P08684 whole entry): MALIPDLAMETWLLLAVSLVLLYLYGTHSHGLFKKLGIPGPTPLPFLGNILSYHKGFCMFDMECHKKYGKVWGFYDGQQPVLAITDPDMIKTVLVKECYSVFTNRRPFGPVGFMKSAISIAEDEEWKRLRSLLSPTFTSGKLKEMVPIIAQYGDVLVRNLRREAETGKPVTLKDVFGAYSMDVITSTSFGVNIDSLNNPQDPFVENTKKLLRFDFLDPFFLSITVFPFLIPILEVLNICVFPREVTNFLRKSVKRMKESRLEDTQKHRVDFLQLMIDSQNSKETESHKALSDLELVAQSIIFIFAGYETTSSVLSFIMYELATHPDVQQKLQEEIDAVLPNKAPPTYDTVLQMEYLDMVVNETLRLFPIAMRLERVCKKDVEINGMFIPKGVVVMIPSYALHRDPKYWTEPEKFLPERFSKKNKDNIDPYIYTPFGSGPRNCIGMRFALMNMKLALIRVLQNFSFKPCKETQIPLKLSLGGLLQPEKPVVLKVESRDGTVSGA
Sequence of CYP2C9 (P11712 whole entry): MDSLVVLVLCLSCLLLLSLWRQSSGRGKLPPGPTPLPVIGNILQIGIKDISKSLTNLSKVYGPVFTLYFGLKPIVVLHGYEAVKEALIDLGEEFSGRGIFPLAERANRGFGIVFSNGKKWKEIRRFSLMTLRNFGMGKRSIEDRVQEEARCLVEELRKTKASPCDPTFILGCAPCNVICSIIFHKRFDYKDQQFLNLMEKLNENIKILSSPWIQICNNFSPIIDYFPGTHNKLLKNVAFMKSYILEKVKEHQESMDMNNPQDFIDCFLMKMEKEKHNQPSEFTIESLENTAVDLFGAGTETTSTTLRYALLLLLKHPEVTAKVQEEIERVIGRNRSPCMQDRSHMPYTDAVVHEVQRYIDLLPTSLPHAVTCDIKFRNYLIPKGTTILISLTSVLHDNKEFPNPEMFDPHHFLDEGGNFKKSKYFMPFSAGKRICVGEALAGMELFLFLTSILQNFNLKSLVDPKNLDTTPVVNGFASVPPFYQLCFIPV
Sequence of Voltage-gated inwardly rectifying potassium channel KCNH2 (Q12809 whole entry): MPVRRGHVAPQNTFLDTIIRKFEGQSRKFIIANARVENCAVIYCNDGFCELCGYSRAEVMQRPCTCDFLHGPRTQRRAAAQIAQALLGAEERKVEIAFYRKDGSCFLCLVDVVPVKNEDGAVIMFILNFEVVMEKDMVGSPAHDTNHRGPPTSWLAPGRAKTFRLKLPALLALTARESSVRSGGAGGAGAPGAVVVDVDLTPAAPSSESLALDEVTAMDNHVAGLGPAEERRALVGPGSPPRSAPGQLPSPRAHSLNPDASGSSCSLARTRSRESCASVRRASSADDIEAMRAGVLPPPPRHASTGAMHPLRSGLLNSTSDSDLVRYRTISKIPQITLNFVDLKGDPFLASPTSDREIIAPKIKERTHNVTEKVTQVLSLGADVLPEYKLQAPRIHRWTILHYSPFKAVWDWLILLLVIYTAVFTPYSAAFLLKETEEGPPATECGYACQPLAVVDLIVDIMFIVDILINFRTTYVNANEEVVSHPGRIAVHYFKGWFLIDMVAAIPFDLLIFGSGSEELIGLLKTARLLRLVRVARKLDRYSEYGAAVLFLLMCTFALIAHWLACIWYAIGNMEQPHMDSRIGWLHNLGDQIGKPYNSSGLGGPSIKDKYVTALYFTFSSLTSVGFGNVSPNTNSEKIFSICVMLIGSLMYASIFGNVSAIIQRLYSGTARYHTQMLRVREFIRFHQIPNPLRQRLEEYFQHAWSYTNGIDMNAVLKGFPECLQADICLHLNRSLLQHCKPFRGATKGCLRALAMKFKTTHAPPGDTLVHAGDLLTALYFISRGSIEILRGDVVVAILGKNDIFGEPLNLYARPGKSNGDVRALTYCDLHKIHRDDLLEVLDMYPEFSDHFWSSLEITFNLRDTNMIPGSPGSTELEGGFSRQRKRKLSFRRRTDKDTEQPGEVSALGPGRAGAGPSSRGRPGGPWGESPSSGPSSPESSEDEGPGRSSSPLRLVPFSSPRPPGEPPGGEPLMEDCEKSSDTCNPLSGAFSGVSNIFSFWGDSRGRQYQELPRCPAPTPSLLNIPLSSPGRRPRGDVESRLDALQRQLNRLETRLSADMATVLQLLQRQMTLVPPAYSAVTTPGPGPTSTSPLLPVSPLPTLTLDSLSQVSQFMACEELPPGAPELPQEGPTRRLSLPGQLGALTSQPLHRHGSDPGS
Sequence of CYP2D6 (P10635 whole entry): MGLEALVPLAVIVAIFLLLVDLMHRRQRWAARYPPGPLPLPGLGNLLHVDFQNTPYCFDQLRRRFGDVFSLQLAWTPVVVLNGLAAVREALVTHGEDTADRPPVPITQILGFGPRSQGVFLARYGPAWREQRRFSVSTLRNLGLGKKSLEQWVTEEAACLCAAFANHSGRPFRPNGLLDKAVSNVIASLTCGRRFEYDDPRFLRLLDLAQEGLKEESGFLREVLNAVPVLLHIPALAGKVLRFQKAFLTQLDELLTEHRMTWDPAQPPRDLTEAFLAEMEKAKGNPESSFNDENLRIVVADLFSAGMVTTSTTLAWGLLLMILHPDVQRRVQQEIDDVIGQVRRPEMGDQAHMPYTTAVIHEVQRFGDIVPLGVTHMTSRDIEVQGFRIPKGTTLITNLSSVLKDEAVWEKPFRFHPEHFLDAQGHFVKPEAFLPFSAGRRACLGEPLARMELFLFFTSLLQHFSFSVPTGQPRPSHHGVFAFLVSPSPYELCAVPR
Sequence of MAP kinase-interacting serine/threonine-protein kinase 1 (Homo sapiens) (Q9BUB5 whole entry, looked up): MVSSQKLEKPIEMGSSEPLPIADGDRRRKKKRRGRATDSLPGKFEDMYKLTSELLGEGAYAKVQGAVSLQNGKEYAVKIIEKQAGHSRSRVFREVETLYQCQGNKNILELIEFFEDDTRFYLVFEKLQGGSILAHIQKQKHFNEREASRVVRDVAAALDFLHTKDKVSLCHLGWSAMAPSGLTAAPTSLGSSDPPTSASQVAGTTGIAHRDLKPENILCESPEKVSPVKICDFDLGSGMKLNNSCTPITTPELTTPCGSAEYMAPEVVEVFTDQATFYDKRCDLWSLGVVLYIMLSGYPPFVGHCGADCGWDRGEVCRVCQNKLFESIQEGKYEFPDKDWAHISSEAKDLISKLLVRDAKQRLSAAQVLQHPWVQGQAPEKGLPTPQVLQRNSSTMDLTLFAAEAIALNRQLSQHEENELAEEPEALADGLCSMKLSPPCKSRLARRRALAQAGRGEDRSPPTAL
Sequence of MAP kinase-interacting serine/threonine-protein kinase 2 (Homo sapiens) (Q9HBH9 whole entry, looked up): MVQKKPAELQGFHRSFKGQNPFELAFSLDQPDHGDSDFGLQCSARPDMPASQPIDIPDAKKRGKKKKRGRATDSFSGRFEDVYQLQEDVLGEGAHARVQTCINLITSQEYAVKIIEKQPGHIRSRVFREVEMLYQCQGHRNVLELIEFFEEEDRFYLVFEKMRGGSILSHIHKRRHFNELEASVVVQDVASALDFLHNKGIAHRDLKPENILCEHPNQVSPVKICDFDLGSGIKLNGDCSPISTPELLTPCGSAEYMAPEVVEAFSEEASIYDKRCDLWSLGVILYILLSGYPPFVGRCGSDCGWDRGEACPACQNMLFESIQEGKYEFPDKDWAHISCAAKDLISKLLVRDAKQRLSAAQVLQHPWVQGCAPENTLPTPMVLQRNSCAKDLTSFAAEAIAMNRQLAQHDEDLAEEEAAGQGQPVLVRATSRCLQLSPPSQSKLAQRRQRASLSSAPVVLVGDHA

Vd [1]	half-life [2]	Tmax [3]	half-life [4]	half-life [6]	fraction unbound [7]	clearance [8]	fraction unbound [15]	fraction unbound [18]	inhibition at 10 µM [19]	fraction unbound [20]	inhibition at 10 µM [21]	AUC(0-t) [22]	inhibition at 10 µM [24]	half-life [28]	bioavailability [32]	inhibition at 10 µM [36]	half-life [40]	SMILES	IC50 [30]	IC50 [31]	other results
18 L/kg	0.583 h	1.2 h	0.717 h	3.07 h	0.129	11.7 mL/min/kg	0.185	0.193	< 20%	0.128	< 20%	9150 ng·h/mL	< 20%	1.47 h	103%	< 20%	17 h	CC(C)C[C@](C)(N)COc1ccc(-c2ccnc(C(F)F)c2)c2nccn12	11.9 µM	51 µM	clearance [5]: 48.3 mL/min/kg; AUC(0-t) [9]: 4640 ng·h/mL; inhibition [10]: 91%; Activity [11]: Active; Compound Exhibited Comparable Efficacy To Lx9211; Tmax [12]: 5.3 h; inhibition [13]: 97%; Vd [14]: 14 L/kg; clearance [16]: 31.7 mL/min/kg; inhibition [17]: 88%; Tmax [23]: 1 h; bioavailability [25]: 118%; inhibition [26]: 39%; bioavailability [27]: 140%; half-life [29]: 3.3 h; half-life [33]: 46.4 h; half-life [34]: 10.3 h; Vd [35]: 25 L/kg; AUC(0-t) [37]: 2270 ng·h/mL; inhibition [38]: 65%; inhibition [39]: 60%
11 L/kg	1.85 h	1 h	2.23 h	1.72 h	0.195	45 mL/min/kg	0.213	0.23	< 20%	0.107	81.1%	4550 ng·h/mL	< 20%	2.12 h	143%	< 20%	2.8 h	CC(C)C[C@](C)(N)COc1ccc(-c2ccnc(C(F)F)c2)n2cncc12	30 µM	43 µM	half-life [41]: 3.27 h; Cmax [42]: 706 ng/mL; AUC(0-t) [43]: 318 ng·h/mL
																		CC(C)C[C@](C)(N)COc1ccc(-c2ccnc(C(F)F)c2)c2nncn12			IC50 [44]: > 0.02 µM
		0.8 h										2340 ng·h/mL						CC(C)C[C@](C)(N)COc1ccc(-c2ccnc(C(F)F)c2)c2cncn12			half-life [41]: 3.2 h; Cmax [42]: 407 ng/mL
																		CC(C)C[C@](C)(N)COc1ccc(-c2ccnc(C(F)F)c2)c2cnccc12			IC50 [44]: > 0.05 µM

From ChEMBL document CHEMBL6083275, “Discovery and evaluation of HW161023 as a potent and orally active AAK1 inhibitor” (Bioorg Med Chem Lett, 2024)
